Values of other authors in US20180214382A1, “EDIBLE COMPOSITION COMPRISING A POLYSACCHARIDE AND A LIPID” (PERORA GMBH, priority 2015, published 2018).

Conditions: rat feeding study; independent from intake

- true digestibility of stearic acid from tristearin: 0.15 g/g
SMILES: CCCCCCCCCCCCCCCCCC(=O)OCC(COC(=O)CCCCCCCCCCCCCCCCC)OC(=O)CCCCCCCCCCCCCCCCC [tristearin]
